Data reported in patent US20260102340A1, “Therapeutic Formulation” (1000739373 Ontario Ltd., priority 2022, published 2026).
In brackets after ≈: the same amount, converted by molar mass. Several values for one entry are separate records, joined by “and”; a condition that tells them apart may be missing. Identical values can stand only once. Like-named read-outs stand apart in the source and are kept apart here.

Key:
[1] = 4.5 months
Source text: A plurality of metered dose inhalers (MDIs) were filled with either the first or second therapeutic formulation. MDIs were stored either upright (Up) or inverted (in). Each MDI comprised a valve and a canister.

[2] = HFA 134a
physchem [3] = conditions: organic solvent or mixture, Mean Drug Solubility (± standard deviation)
physchem [4] = conditions: organic solvent or mixture
[5] = HFA 134a, Metering Valve 1908, 25° C., Up
[6] = HFA 134a, Metering Valve 1908, 40° C. (75% RH), Down
[7] = HFA 134a, Metering Valve 1908, 40° C. (75% RH), Up
[8] = HFA 134a, Metering Valve 1908, Presspart Plasma Coated 14 ml C128, 5° C., Up
[9] = HFA 134a, Metering valve 1904 (with dip tube 1906), 5° C., Up
[10] = HFA 134a, Metering valve 1904 (with dip tube 1906), 40° C. (75% RH), Down
[11] = HFA 134a, Metering valve 1904 (with dip tube 1906), 40° C. (75% RH), Up
[12] = HFA 152a, Metering Valve 1908, 5° C., Up
[13] = HFA 152a, Metering Valve 1908, 25° C., Up
[14] = HFA 152a, Metering Valve 1908, 40° C. (75% RH), Down
[15] = HFA 152a, Metering Valve 1908, 40° C. (75% RH), Up
[16] = HFA 152a, Metering valve 1904 (with dip tube 1906), 40° C. (75% RH), orientation not given
[17] = 0 %(w/w) ethanol, nicotine added 0.169 ± 0.009 %(w/w)
[18] = 14.8 %(w/w) ethanol, nicotine added 0.703 %(w/w)

SMILES: CN1CCC[C@H]1c1cccnc1 [Nicotine, L-Nicotine]
- Nicotine % of 5° C. [1, 5]: 98 % of 5 °C
- Nicotine can content [1, 5]: 23922.695 µg and 23527.533 µg
- Nicotine % of 5° C. [1, 6]: 98 % of 5 °C
- Nicotine can content [1, 6]: 23663.281 µg
- Nicotine % of 5° C. [1, 7]: 97 % of 5 °C
- Nicotine can content [1, 7]: 22809.747 µg and 23785.869 µg
- Nicotine % of 5° C. [1, 8]: 100 % of 5 °C
- Nicotine can content [1, 8]: 24166.562 µg and 24126.474 µg
- Nicotine % of 5° C. [1, 9]: 100 % of 5 °C
- Nicotine can content [1, 9]: 23891.217 µg and 23628.856 µg
- Nicotine % of 5° C. [1, 10]: 97 % of 5 °C
- Nicotine can content [1, 10]: 23102.878 µg and 23079.598 µg
- Nicotine % of 5° C. [1, 11]: 96 % of 5 °C
- Nicotine can content [1, 11]: 22360.125 µg and 23044.004 µg
- Nicotine % of 5° C. [1, 12]: 100 % of 5 °C
- Nicotine can content [1, 12]: 31626.434 µg and 30855.835 µg
- Nicotine % of 5° C. [1, 13]: 100 % of 5 °C
- Nicotine can content [1, 13]: 31592.559 µg and 30786.35 µg
- Nicotine % of 5° C. [1, 14]: 98 % of 5 °C
- Nicotine can content [1, 14]: 30939.368 µg and 30153.5 µg
- Nicotine % of 5° C. [1, 15]: 98 % of 5 °C
- Nicotine can content [1, 15]: 30982.764 µg and 30318.689 µg
- Nicotine % of 5° C. [1, 16]: 97 % of 5 °C
- Nicotine can content [1, 16]: 30395.997 µg and 30048.645 µg
- Solubility in 50:50 mixtures of propellants compared with single propellants (50:50 mixtures of propellants): higher solubility than either propellant alone
- Solubility, equivalent % by mass (HFA 152a): 0.56 % by mass
- Effect of addition of ethanol on solubility [2]: greatly improved
- Detected/Added *100% [2, 17]: 99 ± 11%
- Nicotine Detected in Solution (by HPLC) % (w/w) [2, 17]: 0.168 ± 0.026 % (w/w)
- Nicotine Detected in Solution (by HPLC) μg per 50 μl [2, 17]: 104 ± 15 μg per 50 μl
- Detected/Added *100% [2, 18]: 108 ± 2%
- Nicotine Detected in Solution (by HPLC) % (w/w) [2, 18]: 0.760 ± 0.013 % (w/w)
- Nicotine Detected in Solution (by HPLC) μg per 50 μl [2, 18]: 421 ± 10 μg per 50 μl
- solubility (physchem [3]; 50:50 HFA 134a/HFA 152a): 85.8 ± 3.2 µg/mL (≈ 529 µM)
- solubility (physchem [3]; 50:50 HFA 134a/HFO 1234ze): 62.3 ± 4.4 µg/mL (≈ 384 µM)
- solubility (physchem [3]; HFA 134a): 38.5 ± 1.6 µg/mL (≈ 237 µM)
- solubility (physchem [3]; HFA 152a): 50.8 ± 2.9 µg/mL (≈ 313 µM)
- solubility (physchem [3]; HFA 227ea): 19.8 ± 4.9 µg/mL (≈ 122 µM)
- solubility (physchem [3]; HFO 1234ze): 41.5 ± 0.8 µg/mL (≈ 256 µM)
- solubility (physchem [4]): ≥ 10 µg/mL
